In patent US12428377B2, “Sodium-hydrogen exchanger 3 inhibitor compounds” (Eli Lilly and Company, priority 2019, dated 2025):

Tests used:
SGLT1 = molecular target: T1, SGLT1 (Homo sapiens, UniProt P13866); test: SGLT1 inhibition (selectivity)
T1 sequence (P13866 1-664): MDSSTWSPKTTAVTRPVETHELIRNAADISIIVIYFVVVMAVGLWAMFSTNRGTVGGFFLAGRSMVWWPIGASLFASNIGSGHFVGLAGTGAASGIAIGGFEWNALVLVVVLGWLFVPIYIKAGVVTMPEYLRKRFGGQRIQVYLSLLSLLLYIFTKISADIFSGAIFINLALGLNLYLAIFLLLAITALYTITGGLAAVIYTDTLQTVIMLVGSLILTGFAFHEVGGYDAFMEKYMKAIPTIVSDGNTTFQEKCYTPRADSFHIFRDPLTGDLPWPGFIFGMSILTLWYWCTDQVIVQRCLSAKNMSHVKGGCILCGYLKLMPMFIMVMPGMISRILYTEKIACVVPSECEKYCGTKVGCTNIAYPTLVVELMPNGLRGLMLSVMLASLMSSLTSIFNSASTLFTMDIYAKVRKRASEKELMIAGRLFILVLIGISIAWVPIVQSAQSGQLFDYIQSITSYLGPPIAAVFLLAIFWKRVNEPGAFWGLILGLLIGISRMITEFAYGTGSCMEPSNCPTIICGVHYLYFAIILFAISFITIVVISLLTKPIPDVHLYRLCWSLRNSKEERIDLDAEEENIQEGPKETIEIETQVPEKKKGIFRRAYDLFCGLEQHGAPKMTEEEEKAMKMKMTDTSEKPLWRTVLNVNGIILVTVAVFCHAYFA

[1] = tested on: male spontaneously hypertensive (SHR) rats; test: Effect on blood pressure (telemetry) in spontaneously hypertensive rats; assay type: in vivo, rat; conditions: 0.15 mg/kg/day
From the text: Effect of Example 2 on Blood Pressure Male spontaneously hypertensive (SHR) rats weighing 250-300 g with age of 7 weeks are acclimated to a reversed light cycle (8:00 am lights off and 8:00 pm lights on) and fed regular chow and water ad libitum. Implantable telemetry devices (model TA11PA-C40, Data Sciences International) are implanted into the abdominal aorta. After recovering from surgery, rats are placed in individual cages in a quiet telemetry facility room for measuring blood pressure (mean arterial pressure, MAP) and heart rate (HR). Digitized pressure signals are acquired for 20 second every 5 min using DSI Dataquest IV 4.0 software. The 31 SHR rats are randomized by MAP into two groups and treated twice daily for 14 days with vehicle (n=15) (10% acacia, 0.05% antifoam in purified water) or 0.15 mg/kg/day Example 2. The first dose is given between 6:00 and 6:30 am (2 h prior to lights off) and the second dose is given between 4:00 and 4:30 pm. The daily food consumption and body weight gain are also monitored. MAP, HR, and body weight (BW) data are analyzed by repeated measures analysis of covariance (ANCOVA) with baseline as the covariate. Food consumption (FC) data are analyzed by repeated measures analysis of variance (ANOVA). The mean blood pressure across the time course of the study (days 1-14) for the group treated with 0.15 mg/kg/day of Example 2 is 4.83 mm Hg less than that of the control group with a p-value of 0.0007 (Table 1).

IC50 (SGLT1): 6.6 µM
Structure (SMILES): CN1Cc2c(Cl)cc(Cl)cc2[C@H](c2cccc(S(=O)(=O)NCCOCCOCCN/C(=N\C(N)=O)NCCCCN/C(=N/C(N)=O)NCCOCCOCCNS(=O)(=O)c3cccc([C@@H]4CN(C)Cc5c(Cl)cc(Cl)cc54)c3)c2)C1.Cl.Cl [Example 2, [[4-[[N′-Carbamoyl-N-[2-[2-[2-[[3-[(4S)-6,8-dichloro-2-methyl-3,4-dihydro-1H-isoquinolin-4-yl]phenyl]sulfonylamino]ethoxy]ethoxy]ethyl]carbamimidoyl]amino]butylamino]-[2-[2-[2-[[3-[(4S)-6,8-dichloro-2-methyl-3,4-dihydro-1H-isoquinolin-4-yl]phenyl]sulfonylamino]ethoxy]ethoxy]ethylamino]methylene]urea dihydrochloride]
Effect on body weight (BW) ([1]; 14 days): No significant effect
Effect on food consumption (FC) ([1]; 14 days): No significant effect
Effect on heart rate (HR) ([1]; 14 days): No significant effect
Difference in mean blood pressure vs vehicle ([1]; days 1-14, less than control, p-value 0.0007): 4.83 mm Hg
Mean blood pressure over days 1-14 ([1]; twice daily for 14 days): 153.33 mm Hg
